Measurements as given in publication PMC7179312 (Antimicrobial Agents and Chemotherapy, 2020).

Experiments:
[1] = system: P. aeruginosa PAM1154 carrying pUCP24 vector (PAM4175); experiment: Checkerboard potentiation of antibiotic activity by BLIs; format: cell-based, Pseudomonas aeruginosa
Excerpt: BLI potency was defined as PV50 (PV, potentiation value) of antibiotic potentiation. PV50 is the concentration of a BLI that is required to reduce the antibiotic MIC to the middle of the MIC range where the highest MIC is the MIC for a KPC-producing strain with no inhibitor added and the lowest MIC is the MIC for the vector-alone strain, which corresponds to complete inhibition of KPC. As a given MIC is directly related to the β-lactamase activity, PV50 might be considered the concentration of a BLI that is required to achieve half-effect of inhibition of β-lactamase activity (in whole cells) to hydrolyze an antibiotic of interest. […] However, the accurate determination of PV50 requires the MIC range to be relatively wide.
(§1) For microbiological studies, wild-type blaKPC-2 and its mutant variants were cloned into the shuttle vector pUCP24. Resulting plasmids were transformed in the efflux-deficient strain of P. aeruginosa PAM1154 using selection on 15 μg/ml of gentamicin. Using a strain of P. aeruginosa as opposed to E. coli as a host for various cloned genes was based on the following consideration. As well documented elsewhere ([41]), P. aeruginosa has a low-permeability outer membrane; consequently, the effect of β-lactamases on MIC is amplified in P. aeruginosa compared to that in E. coli due to the slowed uptake of β-lactams. Thus, this host is appropriate to detect β-lactamase activity (as an MIC increase) of low-catalytic-efficiency enzymes that rely heavily on low permeability of the outer membrane. […] MICs were determined using the Clinical and Laboratory Standards Institute (CLSI) broth microdilution method as described in CLSI document M07-A11 ([42]). […] BLI potency was defined as PV50 (PV, potentiation value). PV50 is the minimal concentration of a BLI that is required to reduce the antibiotic MIC to the middle of the MIC range (E50) where the highest MIC is the MIC for a KPC-producing strain with no inhibitor added and the lowest MIC is the MIC for the vector-only strain, corresponding to the complete inhibition of KPC. E50 is calculated as the square root of the product of the antibiotic MICs for the KPC-producing and the vector-only strains.
[…]
8 antibiotic MIC values for the beta-lactamas e-producing and the vector onl y strain.

[2] = system: P. aeruginosa PAM1154 carrying pUCP24 vector (PAM4175); experiment: MIC, CLSI broth microdilution; format: cell-based; settings: Pseudomonas aeruginosa, drug alone
Excerpt: The effects of KPC mutations on resistance to various antibiotics were investigated. For these studies, pUCP24 plasmids carrying wild-type and mutant blaKPC-2 genes as well as the pUCP24 vector were transformed into PAM1154, an efflux-deficient strain of Pseudomonas aeruginosa. In this host, the effect of β-lactamases on β-lactam MIC is amplified due to the slowed uptake of β-lactams across the low-permeability outer membrane without interference by efflux of either β-lactams or BLIs. Consequently, this host allows detection of β-lactamase activity (as an MIC increase) of low-catalytic-efficiency enzymes that rely heavily on the low permeability of the outer membrane. Using the strain that lacks efflux pumps ensures no interference from efflux in interpreting results. We next evaluated the steady-state protein expression levels in bacterial cells. […] The observed discrepancy with our results could be attributed to the difference in either the expression vector or host bacteria.
For microbiological studies, wild-type blaKPC-2 and its mutant variants were cloned into the shuttle vector pUCP24. Resulting plasmids were transformed in the efflux-deficient strain of P. aeruginosa PAM1154 using selection on 15 μg/ml of gentamicin. Using a strain of P. aeruginosa as opposed to E. coli as a host for various cloned genes was based on the following consideration. As well documented elsewhere ([41]), P. aeruginosa has a low-permeability outer membrane; consequently, the effect of β-lactamases on MIC is amplified in P. aeruginosa compared to that in E. coli due to the slowed uptake of β-lactams. Thus, this host is appropriate to detect β-lactamase activity (as an MIC increase) of low-catalytic-efficiency enzymes that rely heavily on low permeability of the outer membrane. […] MICs were determined using the Clinical and Laboratory Standards Institute (CLSI) broth microdilution method as described in CLSI document M07-A11 ([42]). Potentiation of antibiotic activity by various BLIs in bacterial strains carrying wild-type (WT) and mutant KPC-2 genes was performed using standard checkerboard methodology ([43]). BLI potency was defined as PV50 (PV, potentiation value). PV50 is the minimal concentration of a BLI that is required to reduce the antibiotic MIC to the middle of the MIC range (E50) where the highest MIC is the MIC for a KPC-producing strain with no inhibitor added and the lowest MIC is the MIC for the vector-only strain, corresponding to the complete inhibition of KPC. E50 is calculated as the square root of the product of the antibiotic MICs for the KPC-producing and the vector-only strains.

[3] = system: P. aeruginosa PAM1154 carrying pUCP24-KPC-2::D179Y (PAM4639); experiment: MIC, CLSI broth microdilution; format: cell-based, Pseudomonas aeruginosa; settings: for MIC: Pseudomonas aeruginosa, PAM4639, pUCP24-KPC-2::D179Y, drug alone
Excerpt: (§2) The effects of KPC mutations on resistance to various antibiotics were investigated. For these studies, pUCP24 plasmids carrying wild-type and mutant blaKPC-2 genes as well as the pUCP24 vector were transformed into PAM1154, an efflux-deficient strain of Pseudomonas aeruginosa. In this host, the effect of β-lactamases on β-lactam MIC is amplified due to the slowed uptake of β-lactams across the low-permeability outer membrane without interference by efflux of either β-lactams or BLIs. Consequently, this host allows detection of β-lactamase activity (as an MIC increase) of low-catalytic-efficiency enzymes that rely heavily on the low permeability of the outer membrane. Using the strain that lacks efflux pumps ensures no interference from efflux in interpreting results. We next evaluated the steady-state protein expression levels in bacterial cells.
as §1

[4] = system: P. aeruginosa PAM1154 carrying pUCP24-KPC-2::L169P (PAM4751); experiment: MIC, CLSI broth microdilution; format: cell-based, Pseudomonas aeruginosa; settings: for MIC: Pseudomonas aeruginosa, PAM4751, pUCP24-KPC-2::L169P, drug alone
Excerpt: as §2, §1

[5] = system: P. aeruginosa PAM1154 carrying pUCP24-KPC-2 (PAM4135); experiment: MIC, CLSI broth microdilution; format: cell-based; settings: Pseudomonas aeruginosa; PAM4135, pUCP24-KPC-2; drug alone
Excerpt: as §2, §1

[6] = system: CC(C)(O/N=C(\C(=O)N[C@@H]1C(=O)N2C(C(=O)[O-])=C(C[n+]3ccccc3)CS[C@H]12)c1csc(N)n1)C(=O)O; experiment: purified protein, by the assay type; format: biochemical; settings: other: substrate hydrolysis by purified KPC-2; pH 7.0; 37.0 °C
KPC-2 D179Y = target: T1, KPC-2 D179Y (Klebsiella pneumoniae, UniProt Q9F663, D178Y); experiment: Kinetics of nitrocefin and ceftazidime hydrolysis by purified enzyme; format: biochemical
T1 construct: 6xHis (C); made in house; host or cells: E. coli BL21(DE3) pLys, pET28a
Description: (§3) Enzymes were mixed with various concentrations of nitrocefin in 50 mM sodium phosphate (pH 7.0)–0.1 mg/ml of bovine serum albumin (buffer A), and substrate cleavage was monitored at 490 nm every 10 s for 10 min at 37°C on a SpectraMax plate reader (Molecular Devices, San Jose, CA). Initial rates of nitrocefin cleavage were calculated and used to obtain Km and kcat values with Prism software (GraphPad, San Diego, CA).
(§4) Substrate cleavage was monitored at 260 nm every 30 s at room temperature using a SpectraMax plate reader. The reaction was monitored until OD260 values reached a plateau. Resulting OD260 versus time reaction profiles were fitted to the following equation using Prism software: At = A∞ + (A0 − A∞) × e^−k×t, where At is absorbance at time t, A0 is initial absorbance, and A∞ is final absorbance. In this equation, k = kcat/Km × [E], which allows calculatation of kcat/Km knowing the enzyme concentration ([44]).

KPC-2 L169P = target: T2, KPC-2 L169P (Klebsiella pneumoniae, UniProt Q9F663, L168P); experiment: as above; format: biochemical
T2 construct: 6xHis (C); made in house; host or cells: E. coli (pET28a construct; BL21(DE3) pLys is named only for wild type and D179Y)
Description: as §3, §4

KPC-2 = target: T3, KPC-2 (Klebsiella pneumoniae, UniProt Q9F663); experiment: as above; format: biochemical; settings: substrate hydrolysis by purified KPC-2
T3 construct: 6xHis (C); made in house; host or cells: E. coli BL21(DE3) pLys, pET28a
Description: as §3, §4

[7] = substrate hydrolysis by purified KPC-2 D179Y
[8] = substrate hydrolysis by purified KPC-2 L169P

CCN1CCN(C(=O)N[C@@H](C(=O)N[C@@H]2C(=O)N3[C@@H]2SC(C)(C)[C@@H]3C(=O)O)c2ccccc2)C(=O)C1=O [Piperacillin, piperacillin]
Beta-lactam MIC in the presence of BLI ([1]; avibactam 0 µg/ml): 0.125 µg/mL | Beta-lactam MIC in the presence of BLI ([1]; avibactam 0.008 µg/ml): 0.125 µg/mL | Beta-lactam MIC in the presence of BLI ([1]; avibactam 0.031 µg/ml): 0.125 µg/mL | Beta-lactam MIC in the presence of BLI ([1]; avibactam 0.06 µg/ml): 0.125 µg/mL | Beta-lactam MIC in the presence of BLI ([1]; avibactam 0.5 µg/ml): 0.125 µg/mL | Beta-lactam MIC in the presence of BLI ([1]; avibactam 64 µg/ml): 0.03 µg/mL | Beta-lactam MIC in the presence of BLI ([1]; avibactam […]): 0.125 µg/mL | Beta-lactam MIC in the presence of BLI ([1]; vaborbactam 0 µg/ml): 0.125 µg/mL | Beta-lactam MIC in the presence of BLI ([1]; vaborbactam 0.008 µg/ml): 0.125 µg/mL | Beta-lactam MIC in the presence of BLI ([1]; vaborbactam 0.031 µg/ml): 0.125 µg/mL | Beta-lactam MIC in the presence of BLI ([1]; vaborbactam 0.06 µg/ml): 0.125 µg/mL | Beta-lactam MIC in the presence of BLI ([1]; vaborbactam 0.5 µg/ml): 0.125 µg/mL | Beta-lactam MIC in the presence of BLI ([1]; vaborbactam 1 µg/ml): 0.125 µg/mL | Beta-lactam MIC in the presence of BLI ([1]; vaborbactam 2 µg/ml): 0.125 µg/mL | Beta-lactam MIC in the presence of BLI ([1]; vaborbactam 4 µg/ml): 0.125 µg/mL | Beta-lactam MIC in the presence of BLI ([1]; vaborbactam 8 μg/ml): 0.125 µg/mL | Beta-lactam MIC in the presence of BLI ([1]; vaborbactam 16 µg/ml): 0.125 µg/mL | Beta-lactam MIC in the presence of BLI ([1]; vaborbactam […]): 0.125 µg/mL | MIC [2]: 0.06 µg/mL

CC(C)(O/N=C(\C(=O)N[C@@H]1C(=O)N2C(C(=O)[O-])=C(C[n+]3ccccc3)CS[C@H]12)c1csc(N)n1)C(=O)O [Ceftazidime, ceftazidime]
MIC [3]: 512 µg/mL | MIC [4]: 256 µg/mL | Antibiotic MIC, No BLI ([1]; no BLI): 0.25 µg/mL | MIC [2]: 0.25 µg/mL | MIC [5]: 32 µg/mL

KPC-2 (Klebsiella pneumoniae)
kcat [6]: > 2.6 s⁻¹ | kcat/Km [6]: 870 ± 110 M⁻¹ s⁻¹

O=C(Cc1cccs1)N[C@@H]1C(=O)N2C(C(=O)O)=C(/C=C/c3ccc([N+](=O)[O-])cc3[N+](=O)[O-])CS[C@H]12 [Nitrocefin, nitrocefin]
reduction of kcat vs wild-type KPC-2 (KPC-2 D179Y; KPC-2 D179Y): approximately 6,000 fold | Km (KPC-2 D179Y; [7]): 26 ± 12 µM | kcat (KPC-2 D179Y; [7]): 0.023 ± 0.002 s⁻¹ | reduction of kcat vs wild-type KPC-2 (KPC-2 L169P; KPC-2 L169P): ~300 fold | Km (KPC-2 L169P; [8]): 40 ± 10 µM | kcat (KPC-2 L169P; [8]): 0.47 ± 0.04 s⁻¹ | Km (KPC-2): 36 ± 5 µM | kcat (KPC-2): 132 ± 13 s⁻¹

C[C@@H](O)[C@H]1C(=O)N2C(C(=O)O)=C(S[C@@H]3CN[C@H](C(=O)N(C)C)C3)[C@H](C)[C@H]12 [Meropenem, meropenem]
reduction of MIC vs wild-type KPC-2 strain ([3]; D179Y strain): 64 fold | MIC [3]: 1 µg/mL | increase of MIC vs vector-only strain ([3]; {}): 8-16 fold | reduction of MIC vs wild-type KPC-2 strain ([4]; L169P strain): 64 fold | MIC [4]: 1 µg/mL | increase of MIC vs vector-only strain ([4]; {}): 8-16 fold | MIC [2]: 0.125 µg/mL | MIC [5]: 64 µg/mL

C[C@H]1[C@H](NC(=O)/C(=N\OC(C)(C)C(=O)O)c2csc(N)n2)C(=O)N1S(=O)(=O)O [Aztreonam, aztreonam]
MIC [2]: 0.125 µg/mL
